This note sets out measurements from ChEMBL document CHEMBL4808221, “Design and Synthesis of Novel c-di-GMP G-Quadruplex Inducers as Bacterial Biofilm Inhibitors” (J Med Chem, 2021).

The test system of test [1] is Pseudomonas aeruginosa. Put plainly: Antibacterial activity against Pseudomonas aeruginosa PAO1 harboring wspF gene mutation assessed as reduction in bacterial growth at 512 uM by crystal violet staining assay relative to control. The format is functional, organism-based.
The test system of test [2] is Quadruplex DNA. Put plainly: Induction of c-di-GMP G-quadruplex formation (unknown origin) measured at 300 nanometer by CD spectroscopy. The format is nucleic-acid assay.
The test system of test [3] is c-di-GMP G-quadruplex. The experiment in a line: Induction of c-di-GMP G-quadruplex formation in Pseudomonas aeruginosa PAO1 harboring wspF gene mutation assessed as inhibition of biofilm formation incubated for 20 hrs by crystal violet staining assay relative to control. The format is nucleic-acid assay.
Test [4] has as its system c-di-GMP G-quadruplex. Put plainly: Induction of c-di-GMP G-quadruplex formation in Pseudomonas aeruginosa PAO1 harboring wspF gene mutation assessed as inhibition of biofilm formation at 1.25 uM incubated for 20 hrs by crystal violet staining assay relative to control. It is filed as nucleic-acid assay.

pIC50: −log10 of the molar value. Activity calls are given as the source filed them. No cut-off for these calls is given here. Bounds are passed on as bounds.

For orientation: pIC50 means the IC50 on a negative log10 scale, so that one unit is a factor of ten. For `CN1CCN(c2ccc(/C=C/c3sc4ccccc4[n+]3C)cc2)CC1`, the outcome in test [1] and in test [2] was inactive. Moreover, the negative logarithm of the IC50 (pIC50) in test [3] was less than 4.00.
By inhibition is commonly meant the drop in the measured response relative to a control, in per cent. Regarding `C[n+]1c(/C=C/c2ccc(N3CCOCC3)cc2)ccc2ccccc21`, the inhibition in test [4] is 1.18%. Besides, the result in test [1] and in test [2] was inactive. Further, the pIC50 in test [3] is less than 4.00.
With `C[n+]1c(/C=C/c2ccc(Br)cc2)sc2ccccc21`, in test [4], the inhibition was -4.77%. Also, the outcome in test [1] was inactive. For the same compound, the negative logarithm of the IC50 (pIC50) in test [3] is less than 4.00.
Consider `C[n+]1c(/C=C/c2ccc(N3CCOCC3)cc2)sc2ccccc21`, for which, in test [4], the inhibition stood at 2.71%. For the same compound, the outcome in test [1] and in test [2] was inactive. Further, in test [3], the pIC50 is less than 4.00.
On to `CN(C)c1ccc(/C=C/c2sc3ccccc3[n+]2C)cc1`, for which, in test [4], the inhibition is -2.67%. In addition, the outcome in test [1] and in test [2] was inactive. Also, in test [3], the pIC50 is less than 4.00.
Take `C[n+]1c(/C=C/c2ccc(F)cc2)sc2ccccc21`: the inhibition in test [4] was 7.72%. Further, the outcome in test [1] was inactive. Further, the pIC50 in test [3] is less than 4.00.
With `C[n+]1c(/C=C/c2ccc(Br)cc2)ccc2ccccc21`, the result in test [1] was inactive. Besides, the pIC50 in test [3] was less than 4.00.
Turning to `C[n+]1c(/C=C/c2ccc(N)cc2)ccc2ccccc21`, the inhibition in test [4] amounted to 2.11%. Moreover, in test [1], the result was inactive. Besides, the outcome in test [2] was Active. In addition, the negative logarithm of the IC50 (pIC50) in test [3] is less than 4.00.
The corresponding values for `C[n+]1c(/C=C/c2cnccn2)ccc2ccccc21` are 8.36%, “inactive”, “Active” and less than 4.00.
`CN(C)c1ccc(/C=C/c2ccc3ccccc3[n+]2C)cc1`: the result in test [1] and in test [2] was inactive. Further, the negative logarithm of the IC50 (pIC50) in test [3] is less than 4.00.
`C[n+]1c(/C=C/c2ccncc2)sc2ccccc21`: the outcome in test [1] and in test [2] was inactive. Moreover, the pIC50 in test [3] is less than 4.00.
Take `C[n+]1c(/C=C/c2cc(Br)c(O)c(Br)c2)sc2ccccc21`: the outcome in test [1] and in test [2] was inactive. The negative-log IC50 (pIC50) in test [3] was less than 4.00.
In the case of `COc1ccc(/C=C/c2sc3ccccc3[n+]2C)cc1`, in test [4], the inhibition is -4.78%. Further, the result in test [1] and in test [2] was inactive. For the same compound, in test [3], the negative logarithm of the IC50 (pIC50) is less than 4.00.
Consider `C[n+]1c(/C=C/c2cc[nH]c2)ccc2ccccc21`, for which, in test [4], the inhibition worked out at 22.2%. Besides, in test [1], the outcome was inactive. Besides, the outcome in test [2] was Active. In addition, the negative logarithm of the IC50 (pIC50) in test [3] was 5.02.
In the case of `COc1ccc(/C=C/c2ccc3ccccc3[n+]2C)cc1`, the inhibition in test [4] was -9.62%. In addition, the result in test [1] and in test [2] was inactive. The pIC50 in test [3] is less than 4.00.
Regarding `C[n+]1c(/C=C/c2ccc([N+](=O)[O-])cc2)sc2ccccc21`, the result in test [1] was inactive. For the same compound, in test [3], the negative logarithm of the IC50 (pIC50) was less than 4.00.
Take `C[n+]1c(/C=C/c2cccc(O)c2)ccc2ccccc21`: the inhibition in test [4] was found to be 29.4%. Moreover, the outcome in test [1] was inactive. The outcome in test [2] was Active. Also, the negative logarithm of the IC50 (pIC50) in test [3] was 5.17.
Consider `C[n+]1c(/C=C/c2cc[nH]c2)sc2ccccc21`, for which, in test [4], the inhibition was 17.7%. Moreover, the result in test [1] was inactive. Moreover, the outcome in test [2] was Active. The negative-log IC50 (pIC50) in test [3] is 5.11.
In the case of `COc1cc(/C=C/c2ccc3ccccc3[n+]2C)ccc1O`, in test [4], the inhibition worked out at 21%. Besides, in test [1], the result was inactive. Further, the result in test [2] was Active. The pIC50 in test [3] was 5.27.
As to `C[n+]1c(/C=C/c2ccc(O)c(O)c2)sc2ccccc21`, the inhibition in test [4] is 21.7%. Besides, the result in test [1] was inactive. Besides, in test [2], the result was Active. Further, in test [3], the negative-log IC50 (pIC50) is 4.94.
Regarding `C[n+]1c(/C=C/c2ccc(O)c(F)c2)sc2ccccc21`, the inhibition in test [4] was -7.67%. The outcome in test [1] and in test [2] was inactive. For the same compound, in test [3], the pIC50 is less than 4.00.
As to `C[n+]1c(/C=C/c2cnccn2)sc2ccccc21`, in test [4], the inhibition worked out at 11.4%. Also, the result in test [1] and in test [2] was inactive. The negative logarithm of the IC50 (pIC50) in test [3] was less than 4.00.
For `C[n+]1c(/C=C/c2ccc(N)cc2)sc2ccccc21`, the inhibition in test [4] was 14.5%. Besides, the outcome in test [1] was inactive. Moreover, the pIC50 in test [3] was less than 4.00.
`CN1CCN(c2ccc(/C=C/c3ccc4ccccc4[n+]3C)cc2)CC1`: the inhibition in test [4] is -2.34%. Further, the outcome in test [1] and in test [2] was inactive. Also, the pIC50 in test [3] is less than 4.00.
For the compound `C[n+]1c(/C=C/c2ccc(O)cc2)ccc2ccccc21`, the inhibition in test [4] came to 13.4%. Moreover, in test [1], the outcome was inactive. In addition, in test [2], the result was Active. For the same compound, in test [3], the pIC50 is less than 4.00.
The corresponding values for `C[n+]1c(/C=C/c2ccc(O)c(F)c2)ccc2ccccc21` are 4.21%, “inactive”, “inactive” and less than 4.00.
As for `C[n+]1c(/C=C/c2ccncc2)ccc2ccccc21`, the inhibition in test [4] is 13%. Also, the result in test [1] and in test [2] was inactive. Further, in test [3], the pIC50 was less than 4.00.
Turning to `C[n+]1c(/C=C/c2ccc(F)cc2)ccc2ccccc21`, the inhibition in test [4] is 21.3%. The outcome in test [1] was inactive. Further, the negative logarithm of the IC50 (pIC50) in test [3] is less than 4.00.
In the case of `C[n+]1c(/C=C/c2ccccc2)sc2ccccc21`, in test [4], the inhibition came out at 19.5%. The outcome in test [1] and in test [2] was inactive. Besides, the pIC50 in test [3] is less than 4.00.
Turning to `C[n+]1c(/C=C/c2ccc([N+](=O)[O-])cc2)ccc2ccccc21`, the outcome in test [1] was inactive. For the same compound, the pIC50 in test [3] was less than 4.00.
For the compound `C[n+]1c(/C=C/c2cc(Br)c(O)c(Br)c2)ccc2ccccc21`, the result in test [1] and in test [2] was inactive.
Take `C[n+]1c(/C=C/c2ccc(O)cc2)sc2ccccc21`: the inhibition in test [4] turned out to be 10.5%. The outcome in test [1] was inactive. The outcome in test [2] was Active. Besides, in test [3], the negative-log IC50 (pIC50) is less than 4.00.
The corresponding values for `C[n+]1c(/C=C/c2ccccc2)ccc2ccccc21` are 18.8%, “inactive”, “inactive” and less than 4.00.
